Laboratory results as given in US11407721B2, “CIS-morpholinone and other compounds as MDM2 inhibitors for the treatment of cancer” (AMGEN INC., priority 2013, dated 2022).

biological target: interaction between HDM2 and p53 (GST-hMDM2 (1-188) / biotinylated-p53 (1-83)) (Homo sapiens (Human), UniProt Q00987); assay: HTRF2 Assay (improved HTRF assay); assay type: binding; settings: 0.2 nM GST-hMDM2 (1-188), 0.5 nM biotinylated-p53 (1-83), 100 mM KF; read-out: HTRF2 IC50
Sequence (Q00987 1-188): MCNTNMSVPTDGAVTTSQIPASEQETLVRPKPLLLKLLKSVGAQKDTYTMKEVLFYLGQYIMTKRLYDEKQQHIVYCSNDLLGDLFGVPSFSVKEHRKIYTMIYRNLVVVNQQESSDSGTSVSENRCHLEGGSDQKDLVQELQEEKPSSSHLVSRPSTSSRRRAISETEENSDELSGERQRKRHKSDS

| IC50 [nM] | SMILES |
| --- | --- |
| 24700 | CCC[C@H](CCC(=O)O)N1C(=O)CO[C@@H](c2ccc(Cl)cc2)[C@H]1c1ccc(Cl)cc1 [(4R)-4-((2S,3R)-2,3-bis(4-chlorophenyl)-5-oxo-4-morpholinyl)heptanoic acid] |
| 3660 | CCC[C@H](CC(=O)O)N1C(=O)[C@H](Cc2ccc(F)cc2)O[C@@H](c2cccc(Cl)c2)[C@H]1c1ccc(Cl)cc1 [(3R)-3-((2S,3R,6S)-2-(3-chlorophenyl)-3-(4-chlorophenyl)-6-(4-fluorobenzyl)-5-oxo-4-morpholinyl)hexanoic acid] |
| 63000 | O=C1CO[C@@H](c2ccc(Cl)cc2)[C@@H](c2ccc(Cl)cc2)N1c1cc(Cl)nc(Cl)c1 [(5R,6S)-5,6-bis(4-chlorophenyl)-4-(2,6-dichloro-4-pyridinyl)-3-morpholinone] |
| 2440 | CCC[C@H](C(=O)NCCCC(=O)O)N1C(=O)[C@H](Cc2ccc(S(C)(=O)=O)cc2)O[C@@H](c2ccc(Cl)cc2)[C@H]1c1ccc(Cl)cc1 [4-(((2R)-2-((2S,3R,6S)-2,3-bis(4-chlorophenyl)-6-(4-(methylsulfonyl)benzyl)-5-oxo-4-morpholinyl)pentanoyl)amino)butanoic acid] |
| 7180 | O=C1CO[C@@H](c2ccc(Cl)cc2)[C@@H](c2ccc(Cl)cc2)N1c1ccnc(Cl)c1 [(5R,6S)-5,6-bis(4-chlorophenyl)-4-(2-chloro-4-pyridinyl)-3-morpholinone] |

Further lines, the compound ahead of its results:

| SMILES | IC50 [nM] |
| --- | --- |
| CCC[C@H](C(=O)O)N1C(=O)[C@H](Cc2ccccc2S(C)(=O)=O)O[C@@H](c2ccc(Cl)cc2)[C@H]1c1ccc(Cl)cc1 [Example 51, (R)-2-((2S,3R,6S)-2,3-Bis(4-chlorophenyl)-6-(2-(methylsulfonyl)benzyl)-5-oxomorpholino)pentanoic acid] | 676 |
| CCC[C@H](C(=O)O)N1C(=O)[C@H](CCCO)O[C@@H](c2ccc(Cl)cc2)[C@H]1c1ccc(Cl)cc1 [(2R)-2-((2S,3R,6S)-2,3-bis(4-chlorophenyl)-6-(3-hydroxypropyl)-5-oxo-4-morpholinyl)pentanoic acid] | 3010 |
| CCC[C@H](C(=O)O)N1C(=O)[C@H](CCCN2CCOCC2)O[C@@H](c2ccc(Cl)cc2)[C@H]1c1ccc(Cl)cc1 [Example 57, (R)-2-((2S,3R,6S)-2,3-Bis(4-chlorophenyl)-6-(3-morpholinopropyl)-5-oxomorpholino)pentanoic acid] | 391 |
| CCC[C@H](C(=O)O)N1C(=O)[C@H](Cc2ccccc2)O[C@@H](c2ccc(Cl)cc2)[C@H]1c1ccc(Cl)cc1 [Example 44, (R)-2-((2S,5R,6S)-2-Benzyl-5,6-bis(4-chlorophenyl)-3-oxomorpholino)pentanoic acid] | 757 |
| CCC[C@H](C(=O)O)N1C(=O)[C@H](Cc2ccccc2OC)O[C@@H](c2ccc(Cl)cc2)[C@H]1c1ccc(Cl)cc1 [(2R)-2-((2S,3R,6S)-2,3-bis(4-chlorophenyl)-6-(2-methoxybenzyl)-5-oxo-4-morpholinyl)pentanoic acid] | 496 |
| CCC[C@H](C(=O)O)N1C(=O)[C@H](Cc2ccccc2C#N)O[C@@H](c2ccc(Cl)cc2)[C@H]1c1ccc(Cl)cc1 [Example 46, (R)-2-((2S,3R,6S)-2,3-Bis(4-chlorophenyl)-6-(2-cyanobenzyl)-5-oxomorpholino)pentanoic acid] | 259 |
| CCC[C@H](C(=O)O)N1C(=O)[C@H](CCN2CCN(C)CC2)O[C@@H](c2ccc(Cl)cc2)[C@H]1c1ccc(Cl)cc1 [(2R)-2-((2S,3R,6S)-2,3-bis(4-chlorophenyl)-6-(2-(4-methyl-1-piperazinyl)ethyl)-5-oxo-4-morpholinyl)pentanoic acid] | 790 |
| CCC[C@H](C(=O)O)N1C(=O)[C@H](Cc2ccc(S(C)(=O)=O)cc2C#N)O[C@@H](c2ccc(Cl)cc2)[C@H]1c1ccc(Cl)cc1 [Example 55, (R)-2-((2S,3R,6S)-2,3-Bis(4-chlorophenyl)-6-(2-cyano-4-(methylsulfonyl)benzyl)-5-oxomorpholino)pentanoic acid] | 179 |
| CCC[C@H](CC(=O)O)N1C(=O)[C@@H](Cc2ccc(F)cc2)O[C@H](c2cccc(Cl)c2)[C@@H]1c1ccc(Cl)cc1 [(3R)-3-((2R,3S,6R)-2-(3-chlorophenyl)-3-(4-chlorophenyl)-6-(4-fluorobenzyl)-5-oxo-4-morpholinyl)hexanoic acid] | 1150 |
| CCC[C@H](C(=O)O)N1C(=O)[C@H](Cc2ccc(S(C)(=O)=O)cc2)O[C@@H](c2ccc(Cl)cc2)[C@H]1c1ccc(Cl)cc1 [Example 54, (R)-2-((2S,3R,6S)-2,3-Bis(4-chlorophenyl)-6-(4-(methylsulfonyl)benzyl)-5-oxomorpholino)pentanoic acid] | 196 |
| CCC[C@H](C(=O)O)N1C(=O)[C@H](Cc2cccc(OC)c2)O[C@@H](c2ccc(Cl)cc2)[C@H]1c1ccc(Cl)cc1 [(2R)-2-((2S,3R,6S)-2,3-bis(4-chlorophenyl)-6-(3-methoxybenzyl)-5-oxo-4-morpholinyl)pentanoic acid] | 1110 |
| CCC[C@H](C(=O)O)N1C(=O)[C@H](Cc2ccc(F)cc2C#N)O[C@@H](c2ccc(Cl)cc2)[C@H]1c1ccc(Cl)cc1 [Example 45, (R)-2-((2S,3R,6S)-2,3-Bis(4-chlorophenyl)-6-(2-cyano-4-fluorobenzyl)-5-oxomorpholino)pentanoic acid] | 466 |
| CCC[C@H](C(=O)O)N1C(=O)[C@H](Cc2ccc(S(C)(=O)=O)c(F)c2)O[C@@H](c2ccc(Cl)cc2)[C@H]1c1ccc(Cl)cc1 [Example 53, (R)-2-((2S,3R,6S)-2,3-Bis(4-chlorophenyl)-6-(3-fluoro-4-(methylsulfonyl)benzyl)-5-oxomorpholino)pentanoic acid] | 276 |
| CCC[C@H](C(=O)O)N1C(=O)[C@H](CCN2CCCCC2)O[C@@H](c2ccc(Cl)cc2)[C@H]1c1ccc(Cl)cc1 [(2R)-2-((2S,3R,6S)-2,3-bis(4-chlorophenyl)-5-oxo-6-(2-(1-piperidinyl)ethyl)-4-morpholinyl)pentanoic acid] | 1730 |
| CCC[C@H](C(=O)O)N1C(=O)[C@H](Cc2ccc(S(=O)(=O)C(F)(F)F)cc2)O[C@@H](c2ccc(Cl)cc2)[C@H]1c1ccc(Cl)cc1 [Example 56, (R)-2-((2S,3R,6S)-2,3-Bis(4-chlorophenyl)-5-oxo-6-(4-((trifluoromethyl)sulfonyl)benzyl)morpholino)pentanoic acid] | 453 |
| CCC[C@H](C(=O)O)N1C(=O)[C@H](Cc2cccc(S(C)(=O)=O)c2)O[C@@H](c2ccc(Cl)cc2)[C@H]1c1ccc(Cl)cc1 [Example 50, (R)-2-((2S,3R,6S)-2,3-Bis(4-chlorophenyl)-6-(3-(methylsulfonyl)benzyl)-5-oxomorpholino)pentanoic acid] | 568 |
| CCC[C@H](C(=O)O)N1C(=O)[C@H](Cc2ccccc2F)O[C@@H](c2ccc(Cl)cc2)[C@H]1c1ccc(Cl)cc1 [Example 47, (R)-2-((2S,3R,6S)-2,3-Bis(4-chlorophenyl)-6-(2-fluorobenzyl)-5-oxomorpholino)pentanoic acid] | 400 |
| CCC[C@H](CCC(=O)O)N1C(=O)CO[C@H](c2ccc(Cl)cc2)[C@@H]1c1ccc(Cl)cc1 [(4R)-4-((2R,3S)-2,3-bis(4-chlorophenyl)-5-oxo-4-morpholinyl)heptanoic acid] | 4140 |
| CCC[C@H](C(=O)O)N1C(=O)[C@H](Cc2cccc(C#N)c2)O[C@@H](c2ccc(Cl)cc2)[C@H]1c1ccc(Cl)cc1 [Example 49, (R)-2-((2S,3R,6S)-2,3-Bis(4-chlorophenyl)-6-(3-cyanobenzyl)-5-oxomorpholino)pentanoic acid] | 561 |
| CCC[C@H](C(=O)NCCCC(=O)OC)N1C(=O)[C@H](Cc2ccc(S(C)(=O)=O)cc2)O[C@@H](c2ccc(Cl)cc2)[C@H]1c1ccc(Cl)cc1 [methyl 4-(((2R)-2-((2S,3R,6S)-2,3-bis(4-chlorophenyl)-6-(4-(methylsulfonyl)benzyl)-5-oxo-4-morpholinyl)pentanoyl)amino)butanoate] | 749 |
| O=C1CO[C@@H](c2ccc(Cl)cc2)[C@@H](c2ccc(Cl)cc2)N1c1cnccn1 [(5R,6S)-5,6-bis(4-chlorophenyl)-4-(2-pyrazinyl)-3-morpholinone] | 9300 |

same assay, conditions: read-out: HTRF2 IC50

| SMILES | IC50 [nM] |
| --- | --- |
| O=C1[C@H](Cc2ccc(F)cc2)O[C@@H](c2ccc(Cl)cc2)[C@@H](c2ccc(Cl)cc2)N1c1ccnc(Cl)c1 (racemic) [Example 58, (2S,5R,6S)-5,6-Bis(4-chlorophenyl)-4-(2-chloropyridin-4-yl)-2-(4-fluorobenzyl)morpholin-3-one and (2R,5S,6R)-5,6-bis(4-chlorophenyl)-4-(2-chloropyridin-4-yl)-2-(4-fluorobenzyl)morpholin-3-one] | 5000 |
| CS(=O)(=O)c1ccc(C[C@@H]2O[C@@H](c3ccc(Cl)cc3)[C@@H](c3ccc(Cl)cc3)N(c3cccnc3)C2=O)c(F)c1 (mixture of isomers) [Example 63, (2S,5R,6S)-5,6-Bis(4-chlorophenyl)-2-(2-fluoro-4-(methylsulfonyl)benzyl)-4-(pyridin-3-yl)morpholin-3-one and (2R,5S,6R)-5,6-bis(4-chlorophenyl)-2-(2-fluoro-4-(methylsulfonyl)benzyl)-4-(pyridin-3-yl)morpholin-3-one] | 20000 |
| CS(=O)(=O)c1ccc(C[C@@H]2O[C@@H](c3ccc(Cl)cc3)[C@@H](c3ccc(Cl)cc3)N(c3cccnc3)C2=O)cc1 (racemic) [Example 62, (2S,5R,6S)-5,6-Bis(4-chlorophenyl)-2-(4-(methylsulfonyl)benzyl)-4-(pyridin-3-yl)morpholin-3-one and (2R,5S,6R)-5,6-bis(4-chlorophenyl)-2-(4-(methylsulfonyl)benzyl)-4-(pyridin-3-yl)morpholin-3-one] | 15800 |
| CCC[C@H](CCC(=O)O)N1C(=O)[C@H](Cc2ccc(F)cc2)O[C@@H](c2ccc(Cl)cc2)[C@H]1c1ccc(Cl)cc1 (mixture of isomers) [Example 31, (R)-4-((2S,3R,6S)-2,3-Bis(4-chlorophenyl)-6-(4-fluorobenzyl)-5-oxomorpholino)heptanoic acid and (S)-4-((2R,3S,6R)-2,3-bis(4-chlorophenyl)-6-(4-fluorobenzyl)-5-oxomorpholino)heptanoic acid] | 1330 |
